Legend:
[1] = target: T1, GTPase KRas (Homo sapiens, UniProt P01116, G12D)
[2] = target: T1, GTPase KRas; remark: listed apart in the source

T1 sequence (P01116 whole entry G12D): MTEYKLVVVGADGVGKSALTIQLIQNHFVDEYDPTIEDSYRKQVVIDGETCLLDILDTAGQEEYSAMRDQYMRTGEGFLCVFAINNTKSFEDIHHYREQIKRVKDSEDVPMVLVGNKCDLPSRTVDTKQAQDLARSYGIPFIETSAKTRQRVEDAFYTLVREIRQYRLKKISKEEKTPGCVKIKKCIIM

Structure (SMILES) | IC50 [1] | IC50 [2]
Oc1cc(-c2ncc3c(N4CCC[C@]5(CCO5)C4)nc(OC[C@@]45CCCN4C[C@H](F)C5)nc3c2F)c2c(Cl)c(F)ccc2c1 | 3 nM | 1 nM
Oc1cc(-c2ncc3c(N4CCCC5(CCO5)C4)nc(OC[C@@]45CCCN4C[C@H](F)C5)nc3c2F)c2c(F)c(F)ccc2c1 (stereo not given in full) | 9 nM | 2 nM
C#Cc1c(F)ccc2cc(O)cc(-c3ncc4c(N5CCCC6(CCO6)C5)nc(OC[C@@]56CCCN5C[C@H](F)C6)nc4c3F)c12 (stereo not given in full) | 43 nM | 1 nM
CCc1c(F)ccc2cc(O)cc(-c3ncc4c(N5CCCC6(CCO6)C5)nc(OC[C@@]56CCCN5C[C@H](F)C6)nc4c3C)c12 (stereo not given in full) | 7 nM | 4 nM
CCc1c(F)ccc2cc(O)cc(-c3ncc4c(N5CCCC6(CC(=O)N6)C5)nc(OC[C@@]56CCCN5C[C@H](F)C6)nc4c3F)c12 (stereo not given in full) | 44 nM | 2 nM
CCc1cccc2cc(O)cc(-c3ncc4c(N5CCCC6(CCO6)C5)nc(OC[C@@]56CCCN5C[C@H](F)C6)nc4c3F)c12 (stereo not given in full) | 11 nM | 3 nM
Oc1cc(-c2ncc3c(N4CCCC5(CC(O)C5)C4)nc(OC[C@@]45CCCN4C[C@H](F)C5)nc3c2F)c2c(F)c(F)ccc2c1 (stereo not given in full) | 119 nM | 2 nM
CCc1cccc2cc(O)cc(-c3ncc4c(N5CCCC6(CC(O)C6)C5)nc(OC[C@@]56CCCN5C[C@H](F)C6)nc4c3F)c12 (stereo not given in full) | 22 nM | 1 nM
CCc1c(F)ccc2cc(O)cc(-c3ncc4c(N5CC(O)CC6(CC6)C5)nc(OC[C@@]56CCCN5C[C@H](F)C6)nc4c3F)c12 (stereo not given in full) | 34 nM | 2 nM
Oc1cc(Cl)c(C2CC2)c(-c2ncc3c(N4CCCC5(CCO5)C4)nc(OC[C@@]45CCCN4C[C@H](F)C5)nc3c2F)c1 (stereo not given in full) | 66 nM | 2 nM
